From patent publication US20190350940A1, “PLATINUM COMPOUNDS, COMPOSITIONS, AND USES THEREOF” (priority 2015, published 2019)
“And” between values parts separate entries of the source, which are not always exact repeats. Identical values can stand only once. “Also recorded” adds a separate entry of the source.

Tests used:
[1] = Vial selection: clear versus amber (light versus dark); type: physicochemical; conditions: 5 mM citrate buffer saline pH about 4, room temperature 24 hours
Procedure: To compare light versus dark conditions, Compound 8 was formulated in 5 mM citrate buffer saline at pH about 4 and placed into two separate vials (one clear and the other amber). The formulations were stored at room temperature for 24 hours and the amount of Impurity 1 and Impurity 2 was observed. From the FIGS. 4 and 5, it can be seen that exposing the Compound 8 solution to light in a clear vial caused an increase in the amount of Impurity 1 in comparison to the solution contained in an amber vial (˜10% Impurity 1 compared to ˜0.75% Impurity 1). […] Also, from these experiments it was concluded that the formation of Impurity 2 is not photosensitive but dependent upon the pH of the formulation.

[2] = Single dose intravenous dose range-finding toxicity study in Beagle dogs (Compound 8-TX-002); type: in vivo, dog; conditions: both sexes, Beagle, in vivo; single IV dose, dog
Procedure: (§1) This study (Compound 8-TX-002) was conducted to evaluate and characterize the acute toxicity and to determine an MTD of Compound 8 when administered once via IV injection to the dog, and to assist in dose selection for a subsequent dog cardiovascular study (Compound 8-TX-005). The test article, Compound 8, was formulated prior to dosing, as a solution in 5 mM citrate buffered saline (0.9% sodium chloride), pH about 4-4.5 at nominal concentrations of 1.2, 2.4, 4.0, and 4.8 mg/mL. Dose formulations were all within the acceptance criteria (+10% of target concentration) ranging from 92.1 to 99.8 percent of target concentration.
(§2) Groups of 2 animals each (1 male, 1 female) received Compound 8 at doses of 3, 6, 10, or 12 mg/kg. Assessment of toxicity was based on mortality, clinical observations, body weight, and qualitative food assessment; physical examinations; and clinical pathology. Toxicokinetic assessment was conducted for platinum concentration in the plasma and plasma ultrafiltrate.

[3] = system: Beagle dogs; test: as above; type: in vivo, dog
Procedure: as §1, §2

[4] = system: BxPC-3 human pancreatic adenocarcinoma; test: BxPC-3 pancreatic xenograft model; type: in vivo, mouse; conditions: female, Crl:NU(NCr)-Foxn1^nu nude, mouse, in vivo, 20 mg/kg, 13 day
Procedure: The effect of Compound 8 on TGI was evaluated in the BxPC-3 human pancreatic adenocarcinoma nude mouse (female Crl:NU(NCr)-Foxn1^nu) xenograft model.

[5] = system: Calu-6 human NSCLC; test: Calu-6 lung xenograft model; type: in vivo, mouse; conditions: mouse, in vivo
Procedure: The effect of Compound 8 was evaluated in the Calu-6 human NSCLC nude mouse (female Crl:NU(NCr)-Foxn1^nu) xenograft model.

[6] = system: NCI-H520 human NSCLC; test: NCI-H520 lung xenograft model; type: in vivo, mouse; conditions: mouse, in vivo
Procedure: The effect of Compound 8 also was evaluated in the NCI-H520 human NSCLC nude mouse (female CrTac:NCr-Foxn1^nu) xenograft model. […] All treatments were statistically significant compared to vehicle (p<0.0001).

[7] = molecular target: T1, hERG (Homo sapiens, UniProt Q12809); test: Binding to membrane preparations of hERG using a radiolabeled antagonist
T1 construct: host or cells: membrane preparations
Procedure: An in vitro evaluation of the binding of Compound 8 to membrane preparations of hERG using a radiolabeled antagonist was performed.

[8] = system: female Beagle dogs; test: Cardiovascular and respiratory effects in Beagle dogs (Compound 8-TX-005); type: in vivo, dog
Procedure: The cardiovascular and respiratory effects of Compound 8 administered IV were evaluated in Beagle dogs (Compound 8-TX-005).

[9] = system: rat plasma; test: In vitro plasma protein binding, rat plasma (Compound 8-DMPK-008); type: in vitro ADME; conditions: incubation 10 minutes at 37° C.
[10] = Total plasma and plasma ultrafiltrate platinum pharmacokinetics in mouse; type: in vivo
Procedure: Nonclinical studies were performed to evaluate the PK of platinum in plasma after IV administration of Compound 8 in the mouse, rat, and dog. The analyses included platinum levels both in total plasma as well as plasma ultrafiltrate.
Compound 8 was administered in 2 different formulations in mice. The formulation used in pharmacology studies was 5% dimethyl sulfoxide (DMSO)/10% Solutol/Saline, and the formulation used in PK studies was 5 mM citrate pH about 4; this latter formulation is that used in GLP toxicology studies in the rat and is the human clinical formulation.

[11] = Platinum pharmacokinetics/toxicokinetics in rat; conditions: in vivo
Procedure: Platinum in the plasma ultrafiltrate was considered free drug (non-protein bound), while the platinum in the plasma was a combination of protein bound and free drug.
Groups of 30 animals (15/sex) each received vehicle control or Compound 8 9, 14, 19, or 6 mg/kg. Groups of 20 animals (10/sex) received Compound 8 9, 14, 19, or 6 mg/kg and 6 animals (3/sex) received vehicle control in the TK portion of the study.

[12] = molecular target: T2, CYP1A2 (Homo sapiens, UniProt P05177); test: CYP inhibition, 1A2; type: in vitro ADME
T2 construct: host or cells: microsomes are mentioned

[13] = molecular target: CYP2C8 (Homo sapiens, UniProt P10632); test: CYP inhibition, 2C8; type: in vitro ADME
[14] = molecular target: CYP2C9 (Homo sapiens, UniProt P11712); test: CYP inhibition, 2C9; type: in vitro ADME
[15] = molecular target: CYP2C19 (Homo sapiens, UniProt P33261); test: CYP inhibition, 2C19; type: in vitro ADME
[16] = molecular target: CYP3A4 (Homo sapiens, UniProt P08684); test: CYP inhibition, 3A4; type: in vitro ADME
Sequence of CYP3A4 (P08684 whole entry): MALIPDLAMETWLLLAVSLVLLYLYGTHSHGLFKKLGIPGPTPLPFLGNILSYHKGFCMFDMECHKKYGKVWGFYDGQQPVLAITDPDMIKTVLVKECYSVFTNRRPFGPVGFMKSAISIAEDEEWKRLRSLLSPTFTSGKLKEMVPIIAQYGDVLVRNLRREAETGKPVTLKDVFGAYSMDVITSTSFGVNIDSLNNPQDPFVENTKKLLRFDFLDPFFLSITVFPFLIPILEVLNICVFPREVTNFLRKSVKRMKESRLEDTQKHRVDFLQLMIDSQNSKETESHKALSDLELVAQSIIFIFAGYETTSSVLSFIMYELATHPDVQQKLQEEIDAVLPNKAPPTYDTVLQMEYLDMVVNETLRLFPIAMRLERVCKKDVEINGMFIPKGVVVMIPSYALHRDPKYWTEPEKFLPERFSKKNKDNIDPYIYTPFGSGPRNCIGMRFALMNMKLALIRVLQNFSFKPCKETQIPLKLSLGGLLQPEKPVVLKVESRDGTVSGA

T1 sequence (Q12809 whole entry): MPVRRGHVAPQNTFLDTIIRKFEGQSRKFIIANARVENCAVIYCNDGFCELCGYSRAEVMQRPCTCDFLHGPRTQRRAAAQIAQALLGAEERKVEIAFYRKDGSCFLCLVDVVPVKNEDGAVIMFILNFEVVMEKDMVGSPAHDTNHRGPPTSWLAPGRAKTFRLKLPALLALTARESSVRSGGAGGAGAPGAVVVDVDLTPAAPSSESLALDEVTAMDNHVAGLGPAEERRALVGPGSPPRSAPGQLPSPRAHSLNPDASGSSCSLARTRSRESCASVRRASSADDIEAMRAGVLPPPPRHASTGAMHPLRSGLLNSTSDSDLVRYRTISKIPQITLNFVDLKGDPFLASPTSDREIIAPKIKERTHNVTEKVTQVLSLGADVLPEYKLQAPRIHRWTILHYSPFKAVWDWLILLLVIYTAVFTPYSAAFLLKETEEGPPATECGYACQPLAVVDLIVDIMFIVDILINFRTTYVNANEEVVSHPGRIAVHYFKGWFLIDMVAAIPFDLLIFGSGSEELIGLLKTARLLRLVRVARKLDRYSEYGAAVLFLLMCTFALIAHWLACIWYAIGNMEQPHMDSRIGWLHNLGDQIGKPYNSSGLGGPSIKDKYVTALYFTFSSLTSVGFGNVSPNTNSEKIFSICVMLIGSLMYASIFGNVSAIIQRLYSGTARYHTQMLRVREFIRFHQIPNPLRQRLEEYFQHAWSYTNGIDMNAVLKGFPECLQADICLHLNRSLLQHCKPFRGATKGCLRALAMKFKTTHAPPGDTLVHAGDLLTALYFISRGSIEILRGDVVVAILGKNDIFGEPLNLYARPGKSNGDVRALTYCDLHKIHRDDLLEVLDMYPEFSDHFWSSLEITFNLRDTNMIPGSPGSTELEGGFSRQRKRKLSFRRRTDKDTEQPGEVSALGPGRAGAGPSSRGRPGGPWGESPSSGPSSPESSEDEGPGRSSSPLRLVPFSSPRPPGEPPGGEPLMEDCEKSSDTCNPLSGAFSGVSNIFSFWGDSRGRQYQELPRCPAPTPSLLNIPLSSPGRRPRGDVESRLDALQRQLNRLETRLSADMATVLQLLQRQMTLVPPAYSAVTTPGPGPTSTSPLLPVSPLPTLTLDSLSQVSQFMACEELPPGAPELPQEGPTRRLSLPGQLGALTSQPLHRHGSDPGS
Sequence of CYP2C9 (P11712 whole entry): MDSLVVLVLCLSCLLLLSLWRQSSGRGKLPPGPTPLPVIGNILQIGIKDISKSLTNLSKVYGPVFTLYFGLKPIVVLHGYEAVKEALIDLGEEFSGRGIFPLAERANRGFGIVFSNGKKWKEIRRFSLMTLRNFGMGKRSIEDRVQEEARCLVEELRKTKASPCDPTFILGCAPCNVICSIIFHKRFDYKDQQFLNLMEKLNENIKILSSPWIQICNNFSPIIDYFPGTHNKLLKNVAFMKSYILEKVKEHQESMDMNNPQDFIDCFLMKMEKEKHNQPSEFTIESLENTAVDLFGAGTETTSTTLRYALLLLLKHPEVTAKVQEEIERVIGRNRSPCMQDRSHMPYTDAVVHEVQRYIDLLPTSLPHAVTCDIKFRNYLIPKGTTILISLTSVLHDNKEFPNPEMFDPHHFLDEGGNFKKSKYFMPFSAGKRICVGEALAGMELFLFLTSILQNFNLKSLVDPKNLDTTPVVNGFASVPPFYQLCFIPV
Sequence of CYP2C8 (P10632 whole entry): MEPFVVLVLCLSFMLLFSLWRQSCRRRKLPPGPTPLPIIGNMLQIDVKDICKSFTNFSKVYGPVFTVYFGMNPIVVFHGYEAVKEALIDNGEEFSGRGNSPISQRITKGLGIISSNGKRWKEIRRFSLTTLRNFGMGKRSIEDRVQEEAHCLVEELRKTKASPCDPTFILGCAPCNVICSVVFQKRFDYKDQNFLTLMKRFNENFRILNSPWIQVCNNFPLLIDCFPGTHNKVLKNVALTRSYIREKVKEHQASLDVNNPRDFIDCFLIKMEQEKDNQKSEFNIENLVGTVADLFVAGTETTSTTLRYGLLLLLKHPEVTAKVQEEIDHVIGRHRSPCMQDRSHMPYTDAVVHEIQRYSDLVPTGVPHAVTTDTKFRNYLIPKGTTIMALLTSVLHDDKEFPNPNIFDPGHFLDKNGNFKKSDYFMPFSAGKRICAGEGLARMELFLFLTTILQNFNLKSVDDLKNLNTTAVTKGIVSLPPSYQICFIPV
T2 sequence (P05177 whole entry): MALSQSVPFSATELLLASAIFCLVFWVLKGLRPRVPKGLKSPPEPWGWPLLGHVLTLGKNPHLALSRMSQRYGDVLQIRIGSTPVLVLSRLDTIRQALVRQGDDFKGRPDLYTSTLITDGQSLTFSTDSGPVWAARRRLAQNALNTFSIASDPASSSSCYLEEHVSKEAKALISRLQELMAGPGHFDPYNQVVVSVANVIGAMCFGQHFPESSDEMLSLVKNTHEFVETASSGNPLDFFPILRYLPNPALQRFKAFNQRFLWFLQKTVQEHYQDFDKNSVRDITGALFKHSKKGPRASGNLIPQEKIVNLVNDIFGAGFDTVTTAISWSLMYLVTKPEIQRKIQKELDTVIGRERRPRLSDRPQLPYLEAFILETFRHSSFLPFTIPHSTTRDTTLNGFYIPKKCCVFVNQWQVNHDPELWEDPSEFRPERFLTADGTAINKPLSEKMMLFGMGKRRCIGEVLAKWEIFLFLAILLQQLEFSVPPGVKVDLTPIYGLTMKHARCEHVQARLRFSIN
Sequence of CYP2C19 (P33261 whole entry): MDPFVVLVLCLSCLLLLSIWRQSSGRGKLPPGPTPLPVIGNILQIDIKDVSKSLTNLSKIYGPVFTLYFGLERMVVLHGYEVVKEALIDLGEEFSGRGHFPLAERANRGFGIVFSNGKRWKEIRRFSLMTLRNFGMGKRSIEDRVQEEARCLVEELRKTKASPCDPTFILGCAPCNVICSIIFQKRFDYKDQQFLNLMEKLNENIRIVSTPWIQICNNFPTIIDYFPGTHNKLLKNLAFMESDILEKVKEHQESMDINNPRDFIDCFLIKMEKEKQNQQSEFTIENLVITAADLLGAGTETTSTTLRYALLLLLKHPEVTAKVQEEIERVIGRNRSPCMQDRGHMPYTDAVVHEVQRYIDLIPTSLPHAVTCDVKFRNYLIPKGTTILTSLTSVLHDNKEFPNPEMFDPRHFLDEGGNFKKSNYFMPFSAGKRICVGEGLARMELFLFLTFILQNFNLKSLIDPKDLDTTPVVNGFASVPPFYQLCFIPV

CC(=O)[O][Pt]([NH2])([NH2])([Cl])([Cl])[O]C(=O)NCCCCCN1C(=O)C=CC1=O [Compound 8]
Amount of Impurity 1 ([1]; amber vial (dark)): ~0.75% | Amount of Impurity 1 ([1]; clear vial (light)): ~10% | Amount of Impurity 2 ([1]; clear vial (light)): 0.5% | MTD [2]: 10 mg/kg | Decrease in body weight ([3]; 12 mg/kg animals): exceeded 10% | Chemistry, coagulation, or urinalysis parameters ([3]; 3, 6, 10, 12 mg/kg): no definitive effects | Hematology parameters ([3]; both sexes, all groups (3, 6, 10, 12 mg/kg)): decreases in reticulocytes, red cell mass, neutrophils and platelets | MTD ([3]; single IV dose, dog, corresponds to 10 mg/kg): 200 mg/m^2 and 205 (MTD) mg/m^2 | Mortality and treatment-related clinical observations ([3]; up to 12 mg/kg (240 mg/m^2)): no mortalities or treatment related clinical observations; also recorded: no mortalities | Treatment-related side effects [4]: swollen tails on Day 13 in all animals | Mean maximal BW loss ([5]; 10 mg/kg): 0.9% | Mean maximal BW loss ([5]; 15 mg/kg): 3.2% | Mean maximal BW loss ([6]; 10 mg/kg): 2.7% | Mean maximal BW loss ([6]; 15 mg/kg): 11% | hERG binding finding ([7]; 3 uM, conjugated to human serum albumin): no evidence for significant cardiovascular toxicity | hERG binding finding ([7]; 10 uM, unconjugated to human serum albumin): no evidence for significant cardiovascular toxicity | Increases in blood pressure (slight, non-dose-dependent) ([8]; 6 and 10 mg/kg, between 6 and 12 hours following treatment): 9-16 % above controls | Doses with no observable adverse effects on cardiovascular or pulmonary function ([8]; IV, female Beagle dogs): ≤ 10 mg/kg | Doses with no observable adverse effects on cardiovascular or pulmonary function, as HED ([8]; IV, female Beagle dogs): ≤ 200 mg/m^2 | Test article-related clinical observations ([8]; all animals, approximately 24 hours post-dose): observations of vomitus | Mortality, body temperature, heart rate, ECG parameters (PR, RR, QRS, QT, QTc), respiratory rate ([8]; single IV injection 6 and 10 mg/kg, female Beagle dogs): did not produce mortality or changes | Protein bound [9]: > 99% | Dose (MTD) [10]: 41.8 (MTD) mg/m^2 | Mean difference of AUC(0-48h) between the 2 formulations ([10]; in vivo): 5% | Portion of platinum in circulation free in the ultrafiltrate ([10]; in vivo): < 1% | Ultrafiltrate platinum to total ratio at Cmax ([10]; in vivo): 0.06 | Ultrafiltrate to total AUC ratio ([10]; in vivo): 0.0056 | Plasma free platinum AUC ([10]; in vivo, iv): 20.6 µM·h | Plasma free platinum Cmax ([10]; in vivo, iv): 15.9 µM | Ultrafiltrate levels as share of the total platinum levels ([11]; both): approximately 1% | RBC platinum concentrations, Day 21 relative to Day 1 ([11]; 19 mg/kg): did not result in significant accumulation of platinum in the RBCs | IC50 [12]: 550 nM | IC50 [13]: 680 nM | IC50 [14]: 950 nM | IC50 [15]: 2720 nM | IC50 [16]: 1960 nM
